Measurements from patent US20190365728A1, “PHARMACEUTICAL COMPOSITION COMPRISING BETAHISTINE” (Otolanum AG, priority 2017, published 2019).
Marks after values point to notes of the source that are not given here.

Key:
[1] = Single-dose and 14-day repeat-dose toxicology/toxicokinetic study of intranasal betahistine in beagle dogs; assay type: in vivo
Protocol: Sample analysis was conducted using reversed phase chromatography.

[2] = metabolite of betahistine, background statement; cited from earlier work
[3] = Pharmacokinetic profile in beagle dogs after single oral, intranasal and intravenous betahistine; assay type: in vivo
Protocol: In this study, the pharmacokinetic profile of betahistine was evaluated after a single dose administration of betahistine in male and female beagle dogs (age 5-7 months; weight of 5-11 kg, within a range of 3 kg for each sex) for three routes of administration: oral, intranasal, and intravenous.
On Day 1 of the study, betahistine (BH) was delivered orally at a dose of 12 mg/kg, 24 mg/kg, or 48 mg/kg. Each treatment group comprised 8 animals (4 males and 4 females). For pharmacokinetic assessment, plasma samples were collected prior to dosing, and then at 5, 10, 20 and 30 min, 1, 2, 3, 6, 24 hours after dosing.
On Day 8 of the study, the animals that received oral BH at a dose of 12 mg/kg were administered the test betahistine composition intranasally at a dose of 40 mg betahistine dihydrochloride; the animals that received oral BH at a dose of 24 mg/kg were administered the test betahistine composition intranasally at a dose of 80 mg betahistine dihydrochloride; and the animals that received oral BH at a dose of 48 mg/kg were administered the test betahistine composition intranasally at a dose of 120 mg betahistine dihydrochloride. The test betahistine composition was delivered intranasally in a single dose via an Aptar nasal spray pump device at a total dose level of 40, 80 and 120 mg of betahistine dihydrochloride. Plasma samples were collected prior to dosing, and then at 5, 10, 20 and 30 min, 1, 2, 3, 6, 24 hours after dosing.
On Day 15 of the study, the animals that received oral BH at a dose of 12 mg/kg and the test betahistine composition intranasally at a dose of 40 mg betahistine dihydrochloride were administered a bolus intravenous injection of betahistine at a dose of 0.44 mg/kg. Plasma samples were collected prior to dosing, and then at 5, 10, 20 and 30 min, 1, 2, 3, 6, 24 hours after dosing.
Betahistine 13CD3 dihydrochloride and 2-pyridylacetic acid-D4 hydrochloride were used as respective internal standards. The calibration range for betahistine was 0.05-250 ng/mL and for 2-PAA 2.00-3000 ng/mL using a plasma sample volume of 0.50 mL.
For determination of betahistine, the method involved liquid-liquid extraction, for 2-PAA, the method involved protein precipitation. Plasma samples were prepared for betahistine by extraction under basic conditions with an organic solvent, then the organic phase was dried, reconstituted and transferred for LC/MS-MS analysis. […] Sample analysis was performed using reversed phase chromatography.

[4] = Minor metabolites HEP and AEP in human plasma (LC-MS/MS); assay type: in vivo
Protocol: For the first time it was also possible to determine the two minor betahistine metabolites aminoethylpyridine (AEP) and hydroxyethylpyridine (HEP) in human plasma.
HEP and AEP concentrations were determined using liquid chromatographic tandem mass spectrometry (SCIEX API 4000) with a validated method. HEP-d4 and AEP-d4 dihydrochloride served as internal standards. […] The limit of quantitation was 1 ng/mL in case of HEP and 10 pg/mL in case of AEP.

clinical = conditions: human
Protocol: The safety and pharmacokinetic profile of intranasal betahistine with single and multiple dosing was evaluated in a single-site randomized, placebo-controlled Phase I dose-escalation trial. 72 healthy male and female subjects aged between 18 and 60 years and with a BMI of 18.5 to 30 kg/m^2 were enrolled. In one group, the subjects received single dose intranasal betahistine in four dose cohorts of 10, 20, 40 or 60 mg or multiple dose intranasal betahistine (three times daily for 3 days) in four dose cohorts of 5, 10, 20 or 40 mg (double blind). Subjects received first the single dose and then, following a wash-out period, the multiple doses with the exception of the 5 mg and 60 mg doses which were tested only under one dose regimen. For reference purposes, another group of subjects received single dose oral betahistine in four dose cohorts at 48, […], 192 or 384 mg (single blind).
With each actuation of the nasal spray, 100 μL were delivered (1 actuation at 50 mg/mL for 5 mg and at 200 mg/mL for 20 mg, respectively; 2 actuations at 50 mg/mL for 10 mg and at 200 mg/mL for 40 mg, respectively, into each nostril; 3 actuations at 200 mg/mL for 60 mg with 2 into one nostril and 1 into the other) while the subject was in an upright position.
Serial blood samples were collected at various time points, starting at pre-dose and over a maximum of 72 hours following dosing.
All plasma samples were stored at −95 to −65° C. until all samples had been collected and sent in two separate shipments for analysis.

[5] = Relative bioavailability of intranasal vs oral betahistine in humans (Example 3 vs Barak et al.); assay type: in vivo; conditions: human
Protocol: For the calculation of the relative bioavailability of intranasal betahistine compared to peroral betahistine, the area under the concentration-time curve (AUC) determined in Example 3 was compared to the AUC determined in a study with oral betahistine in healthy volunteers described in Barak et al. (Journal of Psychopharmacology, 2016, Vol. 30(3) 237-241). In brief, in this study, forty-eight healthy women were recruited and randomized to receive per os (i.e. orally) either betahistine 144 mg/day (48 mg t.i.d.) or matching placebo for 4 weeks. Their mean weight was 60.2 kg in the active-treated group (n=24) and 59.8 kg in the placebo group (n=24). Study medication (betahistine or matching placebo) was administered at least 30 minutes prior to eating. On Day 8, blood samples of 6 mL each were collected at 8 am, and 30, 60, 150 and 300 minutes thereafter. Plasma concentrations of betahistine and its metabolite 2-PAA were determined by high-performance liquid chromatography.

[6] = Single ascending-dose clinical trial of intranasal betahistine in healthy volunteers: safety and plasma pharmacokinetics; conditions: human; for tmax: median (range)
Protocol: The safety and pharmacokinetic profile of intranasal betahistine was further evaluated in a double-blind, randomized, placebo-controlled, single ascending-dose clinical trial involving a total of 32 healthy male and female volunteers. The main inclusion criteria were that subjects had to be aged 18-45 years and show a body mass index within the range of 18-30 kg/m^2. Subjects were required to fast for 8 hours prior to study drug administration and for 2 hours post-dose.
The betahistine was supplied as a 50 and 200 mg/mL solution in a HDPE bottle and spray pump pack (Aptar Classic Line) that delivers an accurate 100 μL per actuation. The study drug was delivered into the right nostril of subjects while they were in a supine position. For the 5 and 20 mg doses, one application of 50 and 200 mg/mL, respectively, was needed, whereas for the 10 and 40 mg doses, two applications of 50 and 200 mg/mL were required.
Serial blood samples were collected through 24 hours, following dosing on Day 1, at Day 4 and Day 7 to determine concentrations of betahistine and its main metabolite, 2-PAA in plasma. Plasma samples were assayed for BH content using validated procedures and methods. Blood samples (6 mL) were collected into tubes containing K2EDTA and were centrifuged at approximately 2000 g for 10 minutes at +4° C. and the resultant plasma transferred into 2 clean, labelled 2 mL cryovials. All plasma samples were stored at −70° C. or below until all samples had been collected and sent as a single batch for analysis. Aliquot 1 and 2 were sent as separate shipments. Concentrations were determined using liquid chromatographic tandem mass spectrometry (LC-MS/MS; SCIEX API 5000 for betahistine and SCIEX API 4000 for 2-PAA) with a validated method. Betahistine-^13CD3 dihydrochloride and 2-PAA-D4 hydrochloride served as internal standards. The standard calibration range—using a plasma sample volume of 0.2 and 0.1 mL, respectively—for betahistine was 10 to 800 pg/mL and for 2-PAA it was 2 to 2000 ng/mL. The limit of quantitation was 10 pg/mL for betahistine and 2.0 ng/mL for 2-PAA.
In case of betahistine, the method involved a liquid-liquid extraction; in case of 2-PAA it involved protein precipitation. For betahistine, plasma samples were extracted under basic conditions with an organic solvent; the organic phase was dried and reconstituted in reconstitution solvent. Approximately 0.120 mL of the aqueous layer was transferred into polypropylene vials for LC-MS/MS analysis. For 2-PAA plasma samples were precipitated with a mixture of organic solvents, supernatant was diluted and 0.120 mL was transferred into polypropylene vials for LC-MS/MS analysis. Sample analysis was conducted using reversed phase chromatography.
For each subject who completed the study, plasma concentration-time data of betahistine and 2-PAA were used for the calculation of the following pharmacokinetic parameters:
Dose normalized parameters Cmax/Dose and AUC/Dose were also calculated.

Q: With O=C(O)Cc1ccccn1 [Variant 2-PAA, 2-pyridylacetic acid] as the compound, how does the last measurable values ([1]; both, beagle, dog, in vivo) read?
A: 24 hours post-dose

Q: What about the pharmacological activity [2] of the same compound?
A: no pharmacological activity

Q: What about the “Tmax, median (min-max)” value ([3]; male, beagle, dog, in vivo) of the same compound?
A: 0.13 (0.08-0.33) hr

Q: For OCCc1ccccn1 [HEP, hydroxyethylpyridine], which median tmax ([4]; in vivo) is on record?
A: 15 min

Q: With CNCCc1ccccn1 [betahistine] as the compound, how does the tolerability ([1]; beagle dogs, intranasal, single dose 4-80 mg and 14-day repeat dose 12-240 mg/day) read?
A: well tolerated

Q: And the “body weights, clinical pathology and gross necropsy findings” value ([1]; both, beagle, dog, in vivo)?
A: unremarkable

Q: What about the microscopic findings ([1]; both, beagle, dog, in vivo) of the same compound?
A: No adverse treatment-related microscopic findings

Q: And the “decline of plasma concentration” value ([1]; both, beagle, dog, in vivo, 1 h)?
A: more than 90%

Q: What about the apparent half-life (clinical; both, in vivo) of the same compound?
A: less than 1 h

Q: And the “exposure AUC0-6 unadjusted for dose, intranasal vs oral 48 mg” value (clinical; both, in vivo)?
A: 5-29 fold

Q: What about the “nasal pain, share of administrations” value (clinical; both, in vivo) of the same compound?
A: 4%

Q: And the “post-nasal drip, share of administrations” value (clinical; both, in vivo)?
A: 5%

Q: And the “runny nose, share of administrations” value (clinical; both, in vivo)?
A: 6%

Q: And the “time of maximum concentrations” value (clinical; both, in vivo)?
A: 5 to 20 min

Q: And the accumulation over time (clinical; both, in vivo, 3 days)?
A: No accumulation

Q: What about the “time of maximum concentrations” value (clinical; both, in vivo, po) of the same compound?
A: 15 to 30 min

Q: What about the tmax (clinical; both, in vivo, tmax, Median (range)) of the same compound?
A: 15 min

Q: And the “dose up to which safety and tolerability could be shown” value (clinical; intranasal multiple dosing three times daily over three days)?
A: up to 40 mg

Q: What about the “dose up to which safety and tolerability could be shown” value (clinical; intranasal single doses) of the same compound?
A: up to 60 mg

Q: And the “relative bioavailability of oral vs. intranasal administration” value ([5]; Barak et al. oral vs Example 3 intranasal)?
A: approximately 2.4%

Q: What about the “bioavailability intranasal relative to oral” value ([5]; Example 3 single intranasal 5-40 mg vs Barak et al. oral 48 mg) of the same compound?
A: 20-40 times

Q: And the “Rel. Bioavail. intranasal relative to oral” value ([5]; intranasal 40 mg vs oral 48 mg (Barak et al.))?
A: 41.1

Q: What about the “peak concentration in plasma” value ([6]; betahistine, single intranasal 20 mg) of the same compound?
A: 4.1 ng/mL

Q: What about the tmax ([6]; single intranasal 5 mg) of the same compound?
A: 0.208 (0.08-0.33) hr

Q: And the t1/2 ([6]; single intranasal 10 mg, mean, n=3)?
A: 0.883 ^a hr

Q: And the tmax ([6]; single intranasal 10 mg)?
A: 0.167 (0.08-0.17) hr

Q: What about the tmax ([6]; single intranasal 40 mg) of the same compound?
A: 0.125 (0.08-0.27) hr

Q: What about the salivation ([3]; both, beagle, dog, in vivo) of the same compound?
A: noted in most animals

Q: And the “sneezing, animals affected” value ([3]; both, beagle, dog, in vivo)?
A: 2/8

Q: What about the tolerability ([3]; dogs, single intranasal 40-120 mg) of the same compound?
A: well tolerated

Q: What about the Cmax ([3]; female, beagle, dog, in vivo, iv, 0.44 mg/kg) of the same compound?
A: 4.37 ± 8.84 ng/mL

Q: For NCCc1ccccn1 [AEP, aminoethylpyridine], which plasma concentration ([4]; AEP, human, intranasal betahistine 60 mg) is on record?
A: barely detectable
